Assay results reported in US7015312B1, “Antibodies to the protein product encoded by ORF3 of the TRP-1 gene and compositions and kits thereof” (The United States of America as represented by the …, priority 1996, dated 2006).
“Also recorded” adds a separate entry of the source.

Experiments:
Assay type in all cases: cell-based, human
TIL586 [1] = test: GM-CSF release by TIL586 co-incubated with peptide-pulsed target cells
TIL586 [2] = test: as above; set-up: GM-CSF release: unit not given here; conditions: for GM-CSF release: 586EBV cells pulsed with peptide 1 μg/ml for 90 min, co-incubated with TIL586, TIL586 alone subtracted; for Recognition by TIL586 / stimulation of GM-CSF release (in words): peptide pulsed onto 586EBV B cells (A31+)
Experimental: Transfection and cytokine assays were performed as FIG. 1A and b. 586mel and 397mel were included as positive and negative controls for the reactivity of TIL586. The ORF3P peptide was incubated with 586EBV (A31+) and T2 (non-A31) cells at a concentration of 1 μg/ml for 90 min.
The following chemicals and reagents were purchased from the sources indicated: RPMI 1640, AIM-V media, Lipofectamine, G418 (GIBCO BRL, Gaithersberg, Md.); the eukaryotic expression vector pCR3 (Invitrogen, San Diego, […] containing 120 IU/ml of IL-2. TIL586 was added and incubated for additional 18–24 h, 100 μl of supernatant was collected for GM-CSF assay.

TIL586 [3] = test: Cytotoxic lysis of peptide-pulsed target cells by TIL586, 4-h chromium release assay; conditions: for % Specific lysis (E:T 20:1): 586EBV cells pulsed with peptide 1 μg/ml, TIL586 E:T 20:1, 4-h chromium release; for Sensitization of peptide-pulsed 586EBV B cells for lysis by TIL586 (in words): peptide pulsed onto 586EBV B cells
Experimental: 586EBV B cells were incubated with ORF3P (pep) (—▴—), with an irrelevant peptide (ipep) (—●—) without peptide (—Δ—) and T2 cells pulsed with ORF3P (—∘—) as marked. After incubation, TIL586 was added and mixed with the target cells. Cytolytic activity of TIL586 was measured in a 4 h chromium release assay.
586EBV cells were separately incubated with serial dilutions of ORF3P (pep) (—▴—) or irrelevant peptides (ipep) (—●—) and T2 cells with the ORF3P (peptide (—∘—) for 90 min. The cytolytic activity of TIL586 was evaluated in a 4h […] release assay at an effector: target (E:T) ratio of 40:1.
(§1) Cytolytic assays was done as previously described (Kawakami, Y et al., 1994, Proc. Natl. Acad. Sci. USA 91:6458–62). Briefly, the target cells were labeled with chromium for 90 min. After washing three times, the cells were incubated with peptides at a concentration of 1 μg/ml for 90 min. The cells were washed again, counted, and then mixed with TIL586 at the indicated ratio of effector : targets (E:T). Chromium release was measured after 4 h incubation. The peptides were synthesized by a solid-phase method using a peptide synthesizer (Model AMS 422, Gibson Co., Inc., Worthington, Ohio). Some peptides were purified by HPLC and had greater than 98% in purity. For titration of the ORF3P peptide recognized by TIL586, 586EBV B cells were incubated with various concentrations of the purified ORF3P peptide. Percentage of specific lysis was determined from the equation (A-B)/(C-B)×100 where A is lysis of 586EBV B cells by TIL586 in the presence of a peptide, B is spontaneous release from 586EBV B cells in presence of the same peptide but in the absence of effector cells, and C is the maximum chromium release.

TIL586 [4] = test: Cold target inhibition of lysis of 51Cr-labeled 586mel by TIL586; conditions: TIL586, E:T 20:1, 4 h
Experimental: 586EBV cells pulsed with ORF3P (—▴—), with irrelevant peptide (—Δ—) and T2 cells loaded with ORF3P (—□—) were used as “cold” target cells. After washing, “hot” and “cold” target cells were counted again and mixed at the “cold”/“hot” ratio of 1:1, 5:1, 10:1, and 20:1. TIL586 was added at an effector; “hot” target (E:T) ratio of 20:1. Chromium release was measured after 4 h incubation.
as §1, with “For titration of the ORF3P peptide recognized by TIL586, 586EBV B cells were incubated with various concentrations of the purified ORF3P peptide.” left out, “release. […]” for “release.”

[5] = tested on: T cell clones from TIL586; test: GM-CSF release by T cell clones generated from the TIL586 cell line; conditions: six T cell clones, GM-CSF assay, 18–24 h
Experimental: FIGS. 6A–6D show recognition of the antigenic peptide T cell clones from the TIL586 cell line. T cell clones were generated from the TIL586 cell line. 586EBV B cells were pulsed with the ORF3P peptide or irrelevant peptide. T cell clone or TIL586 cells were added and coincubated. For 586 mel, 397 mel/A31^+ tumors and melanocyte NHEM680 cells, 1×10^5 cells per well were incubated with 1×10^5 cells clones, TIL586-C1 (FIG. 6A), TIL586-C4 (FIG. 6B) and TIL586-C6 (FIG. 6C) or TIL586 (FIG. 6D) for 18–24 h, respectively. GM-CSF assay was performed as described in FIG. 1B.
To address the question of whether TIL586 recognized a naturally processed peptide which is similar or identical to the ORF3P peptide on the tumor cells, the ability of the ORF3P peptide pulsed 586EBV B cells to inhibit lysis of ^51Cr-labeled 586mel in a cold-target inhibition assay was examined. […] To further test if T cell clones can recognize both the ORF3P peptide pulsed 586EBV B cells and tumor cell lines, T cell clones were generated from the TIL586 cell line by limiting dilution (1 cell/well in 96-well round bottom microplate) and further expanded in culture. […] T cell clones were further expanded in AIM-V medium containing 6000 IU/ml IL-2. […]

TIL1200 = test: Cold target inhibition of lysis of 51Cr-labeled 624mel by TIL1200; conditions: TIL1200 (gp100, HLA-A2), E:T 30:1, 4 h
Experimental: “Cold” and “hot” target cells were mixed at the indicated ratios. TIL1200 was added at an effector: hot target (E:T) ratio of 30:1. Cytolytic activity of TIL1200 was evaluated in a 4-h ^51Cr release assay.
as §1, with “release. […]” for “release.”

[6] = 586EBV cells, TIL586 E:T 40:1, 4 h

Sequence | GM-CSF release (TIL586 [2]) | Recognition by TIL586 / stimulation of GM-CSF release (in words) (TIL586 [2]) | % Specific lysis (E:T 20:1) (TIL586 [3]) | also measured
AACDQRVLIVR (listed as Homo sapiens) [synthetic peptide from ORF1 (gp75)] | 250 | very weakly induced GM-CSF release | <10% | Peptide concentration needed for weak stimulation of cytokine release from TIL586 (TIL586 [1]; incubated with 586EBV B cells): > 1 µg/mL; Sensitization of target cells for lysis by TIL586 at high peptide concentration (TIL586 [3]; 10 μg/ml of peptide, data not shown): did not sensitize the target cells for lysis; Sensitization of peptide-pulsed 586EBV B cells for lysis by TIL586 (in words) (TIL586 [3]): failed to sensitive peptide-loaded 586EBV B for lysis by TIL586
ACDQRVLIVR (listed as Homo sapiens) [synthetic peptide from ORF1 (gp75)] | <50 |  | <10% | 
ACDQRVLIVRR (listed as Homo sapiens) [synthetic peptide from ORF1 (gp75)] | <50 |  | <10% | 
AISQDTTVGR (listed as Homo sapiens) [synthetic peptide from ORF1 (gp75)] | <50 |  | <10% | 
CGTCRPGWR (listed as Homo sapiens) [synthetic peptide from ORF1 (gp75)] | <50 |  | <10% | 
DDREVWPLR (listed as Homo sapiens) [synthetic peptide from ORF1 (gp75)] | <50 |  | <10% | 
DQRVLIVRR (listed as Homo sapiens) [synthetic peptide from ORF1 (gp75)] | <50 |  | <10% | 
ISLQRQFLR (listed as Homo sapiens) |  | still recognized by TIL586 at comparable concentrations to that of the wild-type peptide |  | 
IVRRNLLDLSK (listed as Homo sapiens) [synthetic peptide from ORF1 (gp75)] | <50 |  | <10% | 
LSKEEKNHFVR (listed as Homo sapiens) [synthetic peptide from ORF1 (gp75)] | <50 |  | <10% | 
LWDVPSWLER (listed as Homo sapiens) | <50 |  | <10% | 
MALQRQFLR (listed as Homo sapiens) [modified ORF3P, substitution Ser with Ala at position 2] |  | recognized |  | 
MLLQRQFLR (listed as Homo sapiens) [modified ORF3P, anchor residue substitution] |  | did not recognize |  | 
MRLQRQFLR (listed as Homo sapiens) [modified ORF3P, anchor residue substitution] |  | did not recognize |  | 
MSLQRLFLR (listed as Homo sapiens) [modified ORF3P, anchor residue substitution] |  | did not recognize |  | 
MSLQRQFLE (listed as Homo sapiens) [modified ORF3P, anchor residue substitution] |  | did not recognize |  | 
MSLQRQFLK (listed as Homo sapiens) [modified ORF3P, anchor residue substitution] |  | did not recognize |  | 
MSLQRQFLR (listed as Homo sapiens) [ORF3P, antigenic nonamer peptide derived from ORF3 of the gp75 (TRP-1) gene] |  | strongly recognized by TIL586; also recorded: significantly increased |  | Recognition by TIL586 / GM-CSF release, peptide on 1510EBV cells (TIL586 [1]; peptide pulsed onto allogeneic 1510EBV B (A31+) cells): observed only when the peptide was pulsed onto autologous 586EBV B cells and 1510EBV B (A31+) cells; also recorded: significantly increased; Recognition by TIL586 / GM-CSF release, peptide on T2 cells (TIL586 [2]; peptide loaded onto T2 (non-HLA-A31) cells): not when peptide was loaded onto T2 (non-HLA-A31) cells; Inhibition of lysis of 51Cr-labeled 586mel by cold peptide-pulsed 586EBV B cells (TIL586 [4]): Significant inhibition; Peptide concentration at which lytic activity was still detected (TIL586 [3]; [6]): 1 nM; Peptide concentration giving maximal sensitization for lysis (TIL586 [3]; [6]): 100 nM; Lysis by TIL586 of T2 cells pulsed with peptide (TIL586 [3]; T2 (non-A31) cells pulsed with peptide): failed to lyse; Sensitization of peptide-pulsed 586EBV B cells for lysis by TIL586 (in words) (TIL586 [3]): lysed; Recognition of peptide-pulsed 586EBV B cells by T cell clones from TIL586 [5]: capable of recognizing; also recorded: recognized by six T cell clones derived from TIL586; Inhibition of lysis of 51Cr-labeled 624mel by cold peptide-pulsed 586EBV B cells (TIL1200): did not inhibit
MSLQRQFLRT (listed as Homo sapiens) [peptide from ORF3] |  | did not recognize |  | 
SGHNCGTCR (listed as Homo sapiens) [synthetic peptide from ORF1 (gp75)] | <50 |  | <10% | 
SLQRQFLRT (listed as Homo sapiens) [peptide from ORF3] |  | did not recognize |  | 
VWPLRFFNR (listed as Homo sapiens) [synthetic peptide from ORF1 (gp75)] | <50 |  | <10% | 
